Source: patent publication US8088806B2 (Achillion Pharmaceuticals, Inc., priority 2005, dated 2012)
pEC50: −log10 of the molar value.

system: HCV replicon; experiment: Replicon based assay of HCV replication inhibition (NPT ELISA); format: cell-based, Hepatitis C virus; settings: Hepatitis C virus, Huh-7, 72 h, Table I; Huh-7 HCV replicon-containing cells, three days; read-out: Activity
Outline: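 Huh-7 cells carrying a bicistronic HCV replicon (neo, EMCV-IRES-driven NS3–NS5B) treated overnight after seeding with usually 6 concentrations, 10 to 0.03 micromolar, for three days at 37° C without G418. Replication read as NPT level by captured ELISA; matched-DMSO wells and interferon alpha as controls.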

CCCCCOc1ccc(Nc2nc(-c3ccc(C(=O)N4CCNC(=O)C4)nc3)cs2)cc1C(F)(F)F [compound 222] and CCCCCOc1ccc(Nc2nc(-c3ccccc3Cl)cs2)cc1C(F)(F)F [compound 203, 4-(2-chlorophenyl)-N-(3-(trifluoromethyl)-4-(pentyloxy)phenyl)thiazol-2-amine] cannot be ordered by pEC50: > 6.00 for the first, > 6.00 for the second.

First: Clc1ccccc1-c1csc(Nc2cccc(Oc3ccccc3)c2)n1 [compound 191, 4-(2-chlorophenyl)-N-(3-phenoxyphenyl)thiazol-2-amine]
Second: O=C(Nc1ccc(OCc2ccccc2)cc1)c1nc(-c2cccnc2)cs1 [compound 114]
The pEC50 of the first is higher: > 6.00 for the first, < 5.00 for the second.

CCCCCOc1ccc(Nc2nc(-c3ccc(F)cc3)cs2)cn1 [compound 63, N-(4-(4-fluorophenyl)thiazol-2-yl)-6-(pentyloxy)pyridin-3-amine] and CCCCCOc1ccc(Nc2nc(-c3ccc(F)cc3)c(C)s2)cc1C(F)(F)F [compound 12, N-(3-(trifluoromethyl)-4-(pentyloxy)phenyl)-4-(4-fluorophenyl)-5-methylthiazol-2-amine] cannot be ordered by pEC50: > 6.00 for the first, > 6.00 for the second.

CCCCCOc1ccc(Nc2ncc(C(=O)Nc3ccc(Cl)cc3)s2)cc1C(F)(F)F [compound 149, 2-(3-(trifluoromethyl)-4-(pentyloxy)phenylamino)-N-(4-chlorophenyl)thiazole-5-carboxamide] and CCCCCOc1ccc(Nc2ncc(C(=O)Nc3cccnc3)s2)cc1C(F)(F)F [compound 163, 2-(3-(trifluoromethyl)-4-(pentyloxy)phenylamino)-N-(pyridin-3-yl)thiazole-5-carboxamide] cannot be ordered by pEC50: > 6.00 for the first, > 6.00 for the second.

CC(=O)c1cccc(Nc2nc(-c3c(C)nc4cc(C)ccn34)cs2)c1 [compound 167, 1-(3-(4-(2,7-dimethylH-imidazo[1,2-a]pyridin-3-yl)thiazol-2-ylamino)phenyl)ethanone] was tested, and the pEC50 was < 5.00.

same assay, conditions: Hepatitis C virus, Huh-7, 72 h, Table III; Huh-7 HCV replicon-containing cells, three days; read-out: Activity

FC(F)(F)c1cc(Nc2nc(-c3cccnc3)cs2)ccc1OCCCN1CCOCC1 [compound 693, N-(4-(3-morpholinopropoxy)-3-(trifluoromethyl)phenyl)-4-(pyridin-3-yl)thiazol-2-amine] and FC(F)(F)c1cc(Nc2nc(-c3cccnc3)cs2)ccc1OCCCN1CCCC1 [compound 696, N-(4-(3-(pyrrolidin-1-yl)propoxy)-3-(trifluoromethyl)phenyl)-4-(pyridin-3-yl)thiazol-2-amine] fall in the same range of pEC50: 5.00 to 6.00 for the first, 5.00 to 6.00 for the second.

CCCCCCCCOc1ccc(Nc2nc(-c3ccc(F)nc3)cs2)cc1C(F)(F)F [compound 526, N-(3-(trifluoromethyl)-4-(octyloxy)phenyl)-4-(6-fluoropyridin-3-yl)thiazol-2-amine] and CCCCCCCCSc1ccc(Nc2nc(-c3cccnc3)cs2)cc1C(F)(F)F [compound 692, N-(3-(trifluoromethyl)-4-(octylthio)phenyl)-4-(pyridin-3-yl)thiazol-2-amine] cannot be ordered by pEC50: > 6.00 for the first, > 6.00 for the second.

Compared with CN1CCN(CCCOc2ccc(Nc3nc(-c4cccnc4)cs3)cc2C(F)(F)F)CC1 [compound 694, N-(4-(3-(4-methylpiperazin-1-yl)propoxy)-3-(trifluoromethyl)phenyl)-4-(pyridin-3-yl)thiazol-2-amine], FC(F)(F)c1cc(Nc2nc(-c3cnccn3)cs2)ccc1OC1CCCC1 [compound 606, N-(4-(cyclopentyloxy)-3-(trifluoromethyl)phenyl)-4-(pyrazin-2-yl)thiazol-2-amine] is higher in pEC50: 5.00 to 6.00 for the first, > 6.00 for the second. The second is the more potent here.

CCCCCOc1ccc(Nc2nc(/C=C/c3ccc(Cl)cc3)cs2)cc1C(F)(F)F [compound 601, 4-(4-chlorostyryl)-N-(3-(trifluoromethyl)-4-(pentyloxy)phenyl)thiazol-2-amine] and CCCCCCCCOc1ccc(Nc2nc(-c3cnc(Cl)nc3)cs2)cc1 [compound 619, 4-(2-chloropyrimidin-5-yl)-N-(4-(octyloxy)phenyl)thiazol-2-amine] cannot be ordered by pEC50: > 6.00 for the first, > 6.00 for the second.

same assay, conditions: Hepatitis C virus, replicon based assay of HCV replication inhibition; Table II; read-out: Activity

CCCCCOc1ccc(Nc2nc(-c3cccc(C(=O)O)c3)cs2)cc1C(F)(F)F [compound 408, 3-(2-(3-(trifluoromethyl)-4-(pentyloxy)phenylamino)thia-zol-4-yl)benzoic acid] and CCCCCOc1ccc(Nc2nc(-c3ccc(O)nc3)cs2)cc1C(F)(F)F [compound 377, 5-(2-(4-(pentyloxy)-3-(trifluoromethyl)phenyl-amino)thiazol-4-yl)pyridin-2-ol] cannot be ordered by pEC50: > 6.00 for the first, > 6.00 for the second.

CCCCCOc1ccc(Nc2nc(CN3CCCC(C(=O)O)C3)cs2)cc1F (stereo not shown) [compound 293, 1-((2-(3-fluoro-4-(pentyloxy)phenylamino)thia-zol-4-yl)methyl)piperidine-3-carboxylic acid] and CCCCCOc1ccc(Nc2nc(CN3CCC(C(=O)OCC)CC3)cs2)cc1F [compound 289, ethyl 1-((2-(3-fluoro-4-(pentyloxy)phenylamino)thia-zol-4-yl)methyl)piperidine-4-carboxylate] fall in the same range of pEC50: 5.00 to 6.00 for the first, 5.00 to 6.00 for the second.

First: CC(=O)OCCCCCCN(C)c1ccc(Nc2nc(-c3ccc(C)nc3)cs2)cc1C(F)(F)F [compound 466]
Second: CCCCCN(C)c1ccc(Nc2nc(-c3ccc(C)nc3)cs2)cc1C(F)(F)F [compound 454, 2-(trifluoromethyl)-N^1-methyl-N^4-(4-(6-methylpyridin-3-yl)thiazol-2-yl)-N^1-pentylbenzene-1,4-diamine]
The pEC50 of the first is lower: 5.00 to 6.00 for the first, > 6.00 for the second. The second is the more potent here.

CCCCCOc1ccc(Nc2nc(-c3ccccc3OC)cs2)cc1C(F)(F)F [compound 374, 4-(2-methoxyphenyl)-N-(4-(pentyloxy)-3-(trifluoromethyl)phenyl)thia-zol-2-amine] and CCCCCOc1ccc(Nc2nc(-c3ccc(NC(C)=O)cc3)cs2)cc1C(F)(F)F [compound 437, N-(4-(2-(3-(trifluoromethyl)-4-(pentyloxy)phenylamino)thia-zol-4-yl)phenyl)acetamide] fall in the same range of pEC50: 5.00 to 6.00 for the first, 5.00 to 6.00 for the second.

First: O=C(Nc1ccc(OCc2ccccc2)cc1)Nc1nc(-c2ccc(Cl)cc2)cs1 [compound 478, 1-(4-(benzyloxy)phenyl)-3-(4-(4-chlorophenyl)thiazol-2-yl)urea]
Second: c1ccc(Oc2cccc(Nc3nc(-c4ccncc4)cs3)c2)cc1 [compound 366, N-(3-phenoxyphenyl)-4-(pyridin-4-yl)thiazol-2-amine]
The pEC50 of the first is lower: 5.00 to 6.00 for the first, > 6.00 for the second.

CCCCCCCOc1ccc(Nc2nc(-c3sc(-c4cnccn4)nc3C)cs2)cc1 [compound 402] and CCCCCCCCOc1ccc(Nc2nc(-c3cncnc3)cs2)cc1 [compound 507, N-(4-(octyloxy)phenyl)-4-(pyrimidin-5-yl)thiazol-2-amine] cannot be ordered by pEC50: > 6.00 for the first, > 6.00 for the second.

CCCCCOc1ccc(Nc2nc(CN3CCN(C(=O)OC(C)(C)C)CC3)cs2)cc1F [compound 279, tert-butyl 4-((2-(3-fluoro-4-(pentyloxy)phenylamino)thia-zol-4-yl)methyl)piperiazine-1-carboxylate] and CCCCCCCCOc1ccc(Nc2nc(CN3CCN(Cc4ccccn4)CC3)cs2)cc1 [compound 313] fall in the same range of pEC50: 5.00 to 6.00 for the first, 5.00 to 6.00 for the second.

CC(C)COc1ccc(Nc2nc(-c3ccc(O)c(C(N)=O)c3)cs2)cc1C(F)(F)F [compound 255, 2-hydroxy-5-(2-(4-isobutoxy-3-(trifluoromethyl)phenyl-amino)thiazol-4-yl)benzamide] and CCCCCOc1ccc(Nc2nc(-c3ccc(CN(C)C)cc3)cs2)cc1C(F)(F)F [compound 234, 4-(4-((dimethylamino)methyl)phenyl)-N-(4-(pentyloxy)-3-(trifluoromethyl)phenyl)thia-zol-2-amine] cannot be ordered by pEC50: > 6.00 for the first, > 6.00 for the second.

same assay, conditions: Hepatitis C virus, replicon based assay of HCV replication inhibition; Table IV; read-out: Activity

CC(=O)Nc1ccc(Nc2nc(-c3cccnc3)cs2)cc1 [compound 878, N-(4-(4-(pyridin-3-yl)thiazol-2-ylamino)phenyl)acetamide] and FC(F)(F)c1ccc(-c2cc(Nc3nc(-c4cccnc4)cs3)on2)cc1 [compound 793, 3-(4-(trifluoromethyl)phenyl)-N-(4-(pyridin-3-yl)thiazol-2-yl)isoxazol-5-amine] cannot be ordered by pEC50: < 5.00 for the first, < 5.00 for the second.

CCCCCCCCOc1ccc(Nc2nc(-c3nc4ccccc4n3C)cs2)cc1C(F)(F)F [compound 770, N-(3-(trifluoromethyl)-4-(octyloxy)phenyl)-4-(1-methyl-1H-benzo[d]imidazol-2-yl)thiazol-2-amine] and CCCCCCCCOc1ccc(Nc2nc(-c3ccc(O)cc3O)cs2)cc1C(F)(F)F [compound 782, 4-(2-(3-(trifluoromethyl)-4-(octyloxy)phenylamino)thiazol-4-yl)benzene-1,3-diol] cannot be ordered by pEC50: > 6.00 for the first, > 6.00 for the second.

N#Cc1sccc1-c1csc(Nc2ccc(OCC3CCCCC3)c(F)c2)n1 [compound 729, 3-(2-(4-(cyclohexylmethoxy)-3-fluorophenylamino)thiazol-4-yl)thiophene-2-carbonitrile] and CCCCCCCCOc1ccc(Nc2nc(-c3ccsc3Cl)cs2)cc1C(F)(F)F [compound 812, 4-(2-chlorothiophen-3-yl)-N-(3-(trifluoromethyl)-4-(octyloxy)phenyl)thiazol-2-amine] cannot be ordered by pEC50: > 6.00 for the first, > 6.00 for the second.

CCCCCCC#Cc1ccc(Nc2nc(-c3cccnc3)cs2)cc1C(F)(F)F [compound 789, N-(3-(trifluoromethyl)-4-(oct-1-ynyl)phenyl)-4-(pyridin-3-yl)thiazol-2-amine] and CC(C)CCCOc1ccc(Nc2nc(-c3cccnc3)cs2)cc1C(F)(F)F [compound 824, N-(4-(4-methylpentyloxy)-3-(trifluoromethyl)phenyl)-4-(pyridin-3-yl)thiazol-2-amine] cannot be ordered by pEC50: > 6.00 for the first, > 6.00 for the second.

FC(F)(F)c1cc(Nc2nc(-c3cccnc3)cs2)ccc1OCCOc1ccccc1 [compound 848, N-(4-(2-phenoxyethoxy)-3-(trifluoromethyl)phenyl)-4-(pyridin-3-yl)thiazol-2-amine] and FC(F)(F)c1cc(Nc2nc(-c3cccnc3)cs2)ccc1OCCCCc1cccs1 [compound 799, N-(4-(4-(thiophen-2-yl)butoxy)-3-(trifluoromethyl)phenyl)-4-(pyridin-3-yl)thiazol-2-amine] cannot be ordered by pEC50: > 6.00 for the first, > 6.00 for the second.
